Where two headings read alike, the source gives them in different places.
How the values were obtained:
Ba/F3 FIG-ROS cells = target: T1, Ba/F3 FIG-ROS cells (Homo sapiens, UniProt P08922); experiment: Cell viability (MTS) assay, Ba/F3 FIG-ROS; assay type: cell-based
T1 construct: fused on or other part: GFP is co-expressed from an IRES in pMIG and is not fused; Q9HD26 (Golgi-associated PDZ and coiled-coil motif-containing protein)
Source text: Ba/F3 cell lines were maintained at densities of 0.5×10^6 to 1.5×10^6 per ml of media. FIG-ROS and SLC-ROS Ba/F3 lines were created by infecting the parental Ba/F3 with retrovirus expressing either human FIG-ROS-S (indicated FIG-ROS herein) or SLC-ROS-S (indicated SLC-ROS herein). Stable transfectant lines were sorted for GFP expression on a FACS Aria® flow cytometer. Cells were counted daily using Guava ViaCount® reagent and Guava Personal Cell Analysis® flow cytometer. […] Early passage NIH3T3 cells were infected with retrovirus expressing either FIG-ROS or SLC-ROS and sorted for GFP expression as described above for Ba/F3 cells. […] This media is referred to as RPMI-10% FBS herein.
The FIG-ROS-S (FIG-ROS) fusion protein has been reported in non-small cell lung cancers (NSCLC), glioblastomas, and cholangiocarcinomas.

Ba/F3 parental cells = experiment: Cell viability (MTS) assay, Ba/F3 parental; assay type: cell-based; settings: Mus musculus, BaF3, read-out: IC50 (insensitive/resistant up to stated concentration)
Method: The parental Ba/F3 cell line was cultured in RPMI 1640 medium with 10% FBS, L-glutamine, penicillin/streptomycin and 15% WEHI-conditioned media. Ba/F3 cell lines were maintained at densities of 0.5×10^6 to 1.5×10^6 per ml of media. FIG-ROS and SLC-ROS Ba/F3 lines were created by infecting the parental Ba/F3 with retrovirus expressing either human FIG-ROS-S (indicated FIG-ROS herein) or SLC-ROS-S (indicated SLC-ROS herein). Stable transfectant lines were sorted for GFP expression on a FACS Aria® flow cytometer. Cells were counted daily using Guava ViaCount® reagent and Guava Personal Cell Analysis® flow cytometer. […] Early passage NIH3T3 cells were infected with retrovirus expressing either FIG-ROS or SLC-ROS and sorted for GFP expression as described above for Ba/F3 cells. HCC78 cells were cultured in RPMI 1640 medium with 10% FBS, L-glutamine, and penicillin/streptomycin. This media is referred to as RPMI-10% FBS herein.
[…]. The Ba/F3 parental line was also tested. (O'Dwyer M E and Druker B J, Lancet Oncology 1, 207-211 (2000); Walters D K et al, Cancer Cell 10, 65-75 (2006); and Heukamp L C et al, Science Translational Medicine 4, 141ra191 (2012); […].

HCC78 cells [1] = experiment: HCC78 colony formation; assay type: cell-based, human; settings: 10 days, FIG. 1F
Source text: FIG. 1F bottom panel is a bar graph depicting the number of colonies observed on the plates from FIG. 1F top panel. Where indicated, **=p<0.01 and ***=p<0.001 by Student's t-test.

HCC78 cells [2] = experiment: HCC78 cell migration (scratch gap closure); assay type: cell-based, human; settings: 50 nM, 18 hours, FIG. 6A
Method: FIG. 6A is a set of six images on the left and a bar graph on the right. The images at left are of a gap at 10 minutes and at 18 hours after ‘scratch’ of cells on a surface. […] The right panel is a bar graph depicting the percent of gap closure determined by measuring the length of a straight line drawn across the gap from imaging the same field of view at initiation of treatment and at 18 hours. Scale bar=200 μm

[3] = target: Ba/F3 FIG-ROS L1982F cells (Homo sapiens, UniProt P08922, L1982F, cells depend on it); experiment: Cell viability assay, Ba/F3 FIG-ROS L1982F; assay type: cell-based; settings: Table 3, Ba/F3 FIG-ROS L1982F; nM; read-out: IC50 (the source's name)
Method: (§1) Cell lines were distributed in 96-well plates and incubated with the indicated concentrations of inhibitor for 72 hours. […] Ba/F3 cell lines were plated at 4×10^3 cells/well. HCC78 and mCC cell lines were plated at 1.5×10^3 cells/well. All cell types were seeded in a final volume of 80 microliters. A 20 microliter volume of five-fold concentrated inhibitor media was added. Cell proliferation was measured using a […] viability assay (CellTiter96 Aqueous One® Solution; Promega). A BioTek Synergy 2® plate reader was used to read the absorbance at 490 nm at 30 minutes and 1 hour after addition of MTS. To facilitate comparison between experiments, the raw MTS absorbance of vehicle (0.1% DMSO) treated cells was set to 1 and absorbance from inhibitor treated wells was normalized to the vehicle treated value. […] Data were normalized using Microsoft Excel® and further non-linear regression curve fit analysis of the normalized data for determination of IC50 was performed using Graphpad Prism® software.
(§2) The FIG-ROS-S fusion gene was synthesized using the GeneArt® service. FIG-ROS-S is denoted as FIG-ROS herein.

[4] = target: Ba/F3 FIG-ROS L1947R cells (Homo sapiens, UniProt P08922, L1947R, cells depend on it); experiment: Cell viability assay, Ba/F3 FIG-ROS L1947R; assay type: cell-based; settings: Table 3, Ba/F3 FIG-ROS L1947R; nM; read-out: IC50 (the source's name)
Method: as §1, §2

[5] = established, reported in the literature; read-out: steady state maximum plasma concentration Cmax; cited from earlier work

T1 sequence (P08922 whole entry, change not shown, the tested form may be a part): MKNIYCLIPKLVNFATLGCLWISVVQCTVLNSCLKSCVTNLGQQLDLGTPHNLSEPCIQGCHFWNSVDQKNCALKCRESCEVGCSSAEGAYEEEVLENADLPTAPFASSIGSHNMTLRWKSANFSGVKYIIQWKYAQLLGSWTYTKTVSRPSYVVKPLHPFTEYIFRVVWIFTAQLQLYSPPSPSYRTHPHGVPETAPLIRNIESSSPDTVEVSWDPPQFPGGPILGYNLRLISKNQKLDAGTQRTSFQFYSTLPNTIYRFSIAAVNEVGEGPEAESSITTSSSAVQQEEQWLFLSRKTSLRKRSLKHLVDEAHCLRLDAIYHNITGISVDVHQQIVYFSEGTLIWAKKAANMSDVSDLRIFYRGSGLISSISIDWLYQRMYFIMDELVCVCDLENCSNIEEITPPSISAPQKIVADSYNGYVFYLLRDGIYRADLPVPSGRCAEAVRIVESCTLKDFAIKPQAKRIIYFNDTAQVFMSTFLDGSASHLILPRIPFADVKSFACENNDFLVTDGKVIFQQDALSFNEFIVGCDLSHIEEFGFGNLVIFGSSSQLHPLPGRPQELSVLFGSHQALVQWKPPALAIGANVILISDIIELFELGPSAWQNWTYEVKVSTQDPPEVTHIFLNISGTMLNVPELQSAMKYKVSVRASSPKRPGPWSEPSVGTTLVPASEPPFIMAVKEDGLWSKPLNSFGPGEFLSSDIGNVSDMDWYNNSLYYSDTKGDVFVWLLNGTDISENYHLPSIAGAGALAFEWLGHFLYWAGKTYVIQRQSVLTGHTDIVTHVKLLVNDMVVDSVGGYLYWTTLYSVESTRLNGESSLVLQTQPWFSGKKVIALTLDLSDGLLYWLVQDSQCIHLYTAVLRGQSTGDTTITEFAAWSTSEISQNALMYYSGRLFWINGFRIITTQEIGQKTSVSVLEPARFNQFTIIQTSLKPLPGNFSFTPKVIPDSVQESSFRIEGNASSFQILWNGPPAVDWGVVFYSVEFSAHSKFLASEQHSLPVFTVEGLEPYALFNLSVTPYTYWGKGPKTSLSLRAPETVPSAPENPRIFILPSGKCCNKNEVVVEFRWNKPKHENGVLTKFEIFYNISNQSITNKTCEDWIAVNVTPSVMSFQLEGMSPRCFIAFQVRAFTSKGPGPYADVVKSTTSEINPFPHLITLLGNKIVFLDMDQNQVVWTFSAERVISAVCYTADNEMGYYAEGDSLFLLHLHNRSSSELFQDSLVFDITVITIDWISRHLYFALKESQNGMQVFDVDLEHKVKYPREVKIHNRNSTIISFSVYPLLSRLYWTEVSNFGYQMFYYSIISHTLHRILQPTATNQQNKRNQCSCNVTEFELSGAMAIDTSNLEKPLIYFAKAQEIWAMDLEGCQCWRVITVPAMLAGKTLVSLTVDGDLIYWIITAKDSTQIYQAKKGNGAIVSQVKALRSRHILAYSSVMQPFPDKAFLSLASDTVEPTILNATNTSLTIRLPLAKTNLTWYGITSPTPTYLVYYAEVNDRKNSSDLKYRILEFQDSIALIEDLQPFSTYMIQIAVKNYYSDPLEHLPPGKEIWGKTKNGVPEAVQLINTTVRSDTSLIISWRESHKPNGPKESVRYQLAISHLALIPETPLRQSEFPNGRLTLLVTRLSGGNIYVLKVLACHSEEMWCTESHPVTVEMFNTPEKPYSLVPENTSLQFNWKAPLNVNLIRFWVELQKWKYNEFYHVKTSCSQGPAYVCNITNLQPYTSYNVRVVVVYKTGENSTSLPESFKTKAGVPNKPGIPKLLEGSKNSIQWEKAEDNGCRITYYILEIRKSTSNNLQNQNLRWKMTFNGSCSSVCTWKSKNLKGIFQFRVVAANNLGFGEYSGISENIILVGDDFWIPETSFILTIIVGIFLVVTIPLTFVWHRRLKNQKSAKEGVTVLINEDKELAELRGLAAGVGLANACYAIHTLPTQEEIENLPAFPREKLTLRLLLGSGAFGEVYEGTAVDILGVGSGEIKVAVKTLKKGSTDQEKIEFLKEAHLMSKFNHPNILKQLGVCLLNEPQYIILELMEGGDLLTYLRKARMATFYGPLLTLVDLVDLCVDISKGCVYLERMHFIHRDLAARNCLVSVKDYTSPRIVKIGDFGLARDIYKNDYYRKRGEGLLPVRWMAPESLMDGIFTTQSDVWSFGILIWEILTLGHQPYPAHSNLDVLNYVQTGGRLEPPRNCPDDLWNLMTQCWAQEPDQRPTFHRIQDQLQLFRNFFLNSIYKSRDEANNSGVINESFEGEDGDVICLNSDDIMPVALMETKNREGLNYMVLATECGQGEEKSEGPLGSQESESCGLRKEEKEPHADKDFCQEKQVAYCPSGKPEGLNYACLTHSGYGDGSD
Sequence of Ba/F3 FIG-ROS L1947R cells (P08922 whole entry L1947R): as the sequence (P08922 whole entry, change not shown, the tested form may be a part) above, with L1947R counted along it
Sequence of Ba/F3 FIG-ROS L1982F cells (P08922 whole entry L1982F): as the sequence (P08922 whole entry, change not shown, the tested form may be a part) above, with L1982F counted along it

COc1cc2c(Oc3ccc(NC(=O)C4(C(=O)Nc5ccc(F)cc5)CC4)cc3F)ccnc2cc1OCCCN1CCOCC1 [foretinib, N1′-[3-fluoro-4-[[6-methoxy-7-(3-morpholinopropoxy)-4-quinolyl]oxy]phenyl]-N1-(4-fluorophenyl)cyclopropane-1,1-dicarboxamide]
GI50 (Ba/F3 FIG-ROS cells; Table 3, mutant: None (Ba/F3 FIG-ROS), nM, read-out: IC50 (the source's name)): 2.03 nM | GI50 (Ba/F3 FIG-ROS cells; read-out: IC50 (50% growth inhibitory concentration), Ba/F3 FIG-ROS cells, 72 hours, MTS): 2 nM | GI50 (Ba/F3 FIG-ROS cells; read-out: IC50 (50% growth inhibitory concentration), Ba/F3 FIG-ROS cells, 72 hours, MTS, listed as Foretinib): 2.2 nM | IC50 (Ba/F3 parental cells): > 2000 nM | HCC78 colony formation (HCC78 cells [1]): more potently inhibited by foretinib than crizotinib | HCC78 cell migration (HCC78 cells [2]): more potently inhibited by foretinib than crizotinib | GI50 [3]: 15.3 nM | GI50 [4]: 17.9 nM | Cmax [5]: 340 nM

Source: patent publication US20140243332A1, “METHODS OF TREATING CANCERS CHARACTERIZED BY ABERRENT ROS1 ACTIVITY” (Oregon Health & Science University, priority 2013, published 2014)
